Results on one molecule are retold here after patent publication US9598362B2, “Benzidine derivative, method for preparing same, and pharmaceutical composition containing benzidine derivative for treating liver disease caused by hepatitis C virus” (priority 2013, dated 2017).

The subject of this assay is HCV (JFH-5aFlucm4). Nature of the assay: Evaluation of anti-HCV activity 1: huh7.5.1 cells inoculated with HCV carrying renilla luciferase reporter. The assay is classed as cell-based. The following applies: Hepatitis C virus. On the procedure:
To evaluate the anti-HCV activity of the compound represented by formula 1 of the present invention, the following experiment was performed.
The hepatoma cell line huh7.5.1 was distributed in a 12-well cell culture plate at the density of 50,000 cells/well. The cells were cultured in DMEM (Dulbecco's Modified Eagle's Medium 12800-017, GIBCO Co.) supplemented with 10% (v/v) FBS (Fetal Bovine Serum SH30406.02, Hyclone Co.) and 1% (v/v) antibiotics (penicillin/streptomycin solution SV30010, Hyclone Co.) in a 37° C. 6.0% CO2 incubator (CO2 Incubator 311, Forma Scientific Co, Lnc. USA) for 24 hours to lead cell attachment on the plate. Then, the cells were inoculated with HCV (JFH-5aFlucm4, PLoS One. 2011; 6(8):e228808.) having renilla luciferase gene as a reporter for 3 hours. Upon completion of the virus inoculation, the cell culture medium was replaced with the medium containing the compounds prepared in Examples 1˜24 at the concentration of 1 μM each. The cells were cultured in a 37° C. 6.0% CO2 incubator (CO2 Incubator 311, Forma Scientific Co, Lnc. USA) for 3 days. Three days after the infection, the cell culture medium was collected to measure the cytotoxicity in the following Experimental Example 3. The cells attached on the plate were washed with PBS (phosphate buffered saline) and then lysed by treating 100 μl of 1× passive lysis buffer (Promega, E1941). The cell lysate (10 μl) was added to renilla luciferase assay reagent (50 μl) in renilla luciferase assay system (Promega, E2820), followed by measurement of luminescence for 10 seconds using the luciferase measure program with Luminometer (GLOMAX 20/20 Luminometer, Promega). At this time, the measurement of luminescence was performed in triplicate with the groups treated with the compounds of Examples 1˜24 and the non-treated control group. The mean value was calculated and compared. The luminescence of each compound over the concentration was converted into EC50 (half maximal effective concentration) by using sigma plot program, and the results are shown in Table 2.

Read-outs that look alike come from different tables or passages of the source.

On to `COC(=O)N[C@@H](C(=O)N1CCC[C@H]1C(=O)Nc1ccc(-c2ccc(NC(=O)[C@@H]3CCCN3C(=O)[C@H](NC(=O)OC)c3ccccc3)cc2)cc1)c1ccccc1` [Example 16, dimethyl(1S,1′S)-2,2′-((2S,2′S)-2,2′-(biphenyl-4,4′-diylbis(azandiyl))bis(oxomethylene)bis(pyrrolidine-2,1-diyl))bis(2-oxo-1-phenylethane-2,1-diyl)dicarbamate], for which the half-maximal effective concentration (EC50) (Huh-7.5.1) was below 1 nM and the concentration for a half-maximal effect (EC50) (Huh-7.5.1, 72 h, read-out: EC50 grade) was below 1 nM.
